Here are results for 13 compounds from publication PMC6073313, “Comparison of the Anion Inhibition Profiles of the α-CA Isoforms (SpiCA1, SpiCA2 and SpiCA3) from the Scleractinian Coral Stylophora pistillata” (International Journal of Molecular Sciences, 2018).

The first assay concerns the target T1, SpiCA3 (Stylophora pistillata, UniProt A0A1B0Y357).
T1 construct: gene CA3
T1 sequence (A0A1B0Y357 1-258): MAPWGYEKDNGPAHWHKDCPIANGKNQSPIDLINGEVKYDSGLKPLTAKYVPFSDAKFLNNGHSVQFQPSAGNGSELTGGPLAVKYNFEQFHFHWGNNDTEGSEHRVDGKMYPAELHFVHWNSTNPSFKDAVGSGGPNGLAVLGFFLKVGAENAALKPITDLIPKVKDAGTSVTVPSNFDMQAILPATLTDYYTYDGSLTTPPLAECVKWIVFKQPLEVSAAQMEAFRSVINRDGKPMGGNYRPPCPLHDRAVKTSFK
Put plainly: stopped-flow CO2 hydration, phenol red, Cheng-Prusoff. It is filed as biochemical.
Settings: not given
Consider `O=NO` [NO2^−], for which the Ki was determined as 0.45 mM. Still for that read-out and setting: to `OB(O)c1ccccc1` [Ph-B(OH)2] belongs > 100 mM. Still for that read-out and setting: to `O=S(=O)(O)C(F)(F)F` [Triflate] belongs 0.29 mM; to `N#C[SeH]` [SeCN^−], 0.15 mM.

For the compound `O=C(O)O` [HCO3^−], the Ki worked out at 0.4 mM. On the same count and under the same terms, the figure for `Cl` [Cl^−] is 0.51 mM; for `I` [I^−] it is 0.56 mM; for `[N-]=[N+]=[N-]` [N3^−] it is 0.08 mM.

Turning to `S` [HS^−], the Ki is 0.34 mM.

The assay is the same for the next values; noted with them: read-out: KI [mM] ^# / SpiCA3 ^c.
`CCN(CC)C(=S)S` [Et2NCS2^−]: the Ki is 0.044 mM.

With `S=C(S)S` [CS3^2^−], the Ki worked out at 0.47 mM.

For `NS(=O)(=O)O` [H2NSO3H], the Ki was > 100 mM. Same read-out and setting: to `NS(N)(=O)=O` [H2NSO2NH2] belongs 0.0007 mM.
